Experimental findings from patent US20230143612A1 (Arbutus Biopharma Corporation, priority 2020, published 2023) are described below.

In general, IC50 refers to the point on the concentration scale where inhibition reaches its midpoint. Read a low IC50 as inhibition by little substance.

The assay deals with PD-L1 His protein / PD-1 Fc protein (Homo sapiens, UniProt Q9NZQ7). The experiment in a line: HTRF Assay (PD-1/PD-L1 interaction). The format is binding. The settings on record: PD-L1 His 6 nM, PD-1 Fc 6 nM. An outline of the steps: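 HTRF: PD-L1 His (6 nM final), compound (3-fold dilutions, 20 μM to 0.001 μM final) and PD-1 Fc (6 nM final) preincubated 15 min at room temperature. Anti-human IgG-XL665 and anti-6HIS Tb cryptate (mixed at 6.7 nM and 0.35 nM) then added for 1 h at room temperature before reading.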
PD-L1 His protein / PD-1 Fc protein, sequence (Q9NZQ7 19-238 limits assumed): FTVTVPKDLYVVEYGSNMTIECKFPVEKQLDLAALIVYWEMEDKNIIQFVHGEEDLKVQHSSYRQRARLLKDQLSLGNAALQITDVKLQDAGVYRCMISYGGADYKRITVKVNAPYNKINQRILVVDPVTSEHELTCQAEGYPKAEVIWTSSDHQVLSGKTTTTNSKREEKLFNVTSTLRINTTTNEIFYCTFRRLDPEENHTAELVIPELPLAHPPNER
`COc1nc(-c2cccc(-c3cccc(-c4cc5c(=O)n(C)c(CNC[C@H](C)OC)nn5c4)c3Cl)c2Cl)ccc1CNC[C@@H]1CCC(=O)N1` [Example 475, 6-[2-Chloro-3-[2-chloro-3-[6-methoxy-5-[[[(2S)-5-oxopyrrolidin-2-yl]methylamino]methyl]-2-pyridyl]phenyl]phenyl]-2-[[[(2S)-2-methoxypropyl]amino]methyl]-3-methyl-pyrrolo[2,1-f][1,2,4]triazin-4-one] came in with an IC50 of 530 nM. That is a sub-micromolar value. To `COc1nc(-c2cccc(-c3cccc(-c4cc5c(=O)n(C)c(CNC[C@H]6CNC(=O)C6)nn5c4)c3Cl)c2Cl)ccc1CNC[C@@H]1CCC(=O)N1` [Example 476, 6-[2-Chloro-3-[2-chloro-3-[6-methoxy-5-[[[(2S)-5-oxopyrrolidin-2-yl]methylamino]methyl]-2-pyridyl]phenyl]phenyl]-3-methyl-2-[[[(3S)-5-oxopyrrolidin-3-yl]methylamino]methyl]pyrrolo[2,1-f][1,2,4]triazin-4-one] belongs 33 nM; to `COc1nc(-c2cccc(-c3cccc(-c4cc5c(=O)n(C)c(CNC(C)C)nn5c4)c3Cl)c2Cl)ccc1CNC[C@@H]1CCC(=O)N1` [Example 477, 6-[2-Chloro-3-[2-chloro-3-[6-methoxy-5-[[[(2S)-5-oxopyrrolidin-2-yl]methylamino]methyl]-2-pyridyl]phenyl]phenyl]-2-[(isopropylamino)methyl]-3-methyl-pyrrolo[2,1-f][1,2,4]triazin-4-one], 17 nM.

`COc1nc(-c2cccc(-c3cccc(-c4cc5c(=O)n(C)c(CNCC(C)(C)O)nn5c4)c3Cl)c2Cl)cc(Cl)c1CNC[C@@H]1CCC(=O)N1` [Example 478, (S)-6-(2,2′-Dichloro-3′-(4-chloro-6-methoxy-5-((((5-oxopyrrolidin-2-yl)methyl)amino)methyl)pyridin-2-yl)-[1,1′-biphenyl]-3-yl)-2-(((2-hydroxy-2-methylpropyl)amino)methyl)-3-methylpyrrolo[2,1-f][1,2,4]triazin-4(3H)-one]: the IC50 worked out at 29 nM. As for `COc1nc(-c2cccc(-c3cccc(-c4cc5c(=O)n(C)c(CNC(C)(C)C)nn5c4)c3Cl)c2Cl)ccc1CNC[C@@H]1CCC(=O)N1` [Example 479, 2-[(tert-Butylamino)methyl]-6-[2-chloro-3-[2-chloro-3-[6-methoxy-5-[[[(2S)-5-oxopyrrolidin-2-yl]methylamino]methyl]-2-pyridyl]phenyl]phenyl]-3-methyl-pyrrolo[2,1-f][1,2,4]triazin-4-one], 14 nM corresponded to half-maximal inhibition (IC50). For `COc1nc(-c2cccc(-c3cccc(-c4cc5c(=O)n(C)c(CNC[C@@H](O)CC(=O)N(C)C)nn5c4)c3Cl)c2Cl)ccc1CNC[C@@H]1CCC(=O)N1` [Example 481, (S)-4-(((6-(2,2′-Dichloro-3′-(6-methoxy-5-(((((S)-5-oxopyrrolidin-2-yl)methyl)amino)methyl)pyridin-2-yl)-[1,1′-biphenyl]-3-yl)-3-methyl-4-oxo-3,4-dihydropyrrolo[2,1-f][1,2,4]triazin-2-yl)methyl)amino)-3-hydroxy-N,N-dimethylbutanamide], the IC50 is 42 nM. `COC(=O)CNCc1nn2cc(-c3cccc(-c4cccc(-c5ccc(CNC[C@@H]6CCC(=O)N6)c(OC)n5)c4Cl)c3Cl)cc2c(=O)n1C` [Example 482, Methyl 2-[[6-[2-chloro-3-[2-chloro-3-[6-methoxy-5-[[[(2S)-5-oxopyrrolidin-2-yl]methylamino]methyl]-2-pyridyl]phenyl]phenyl]-3-methyl-4-oxo-pyrrolo[2,1-f][1,2,4]triazin-2-yl]methylamino]acetate] showed an IC50 of 28 nM. To `COc1nc(-c2cccc(-c3cccc(N4Cc5ccc(CNC[C@@H]6CCC(=O)N6)cc5C4=O)c3Cl)c2Cl)ccc1CNC[C@@H]1CCC(=O)N1` [Example 483, 2-(2,2′-Dichloro-3′-(6-methoxy-5-(((((S)-5-oxopyrrolidin-2-yl)methyl)amino)methyl)pyridin-2-yl)-[1,1′-biphenyl]-3-yl)-6-(((((S)-5-oxopyrrolidin-2-yl)methyl)amino)methyl)isoindolin-1-one] belongs 0.1 nM. Consider `COc1cc(-c2cccc(-c3cccc(-c4ccc(CNC[C@@H]5CCC(=O)N5)c(OC)n4)c3Cl)c2Cl)cc2c1CN(CCC1(O)CCC1)CC2` [Example 484, (S)-5-((((6-(2,2′-Dichloro-3′-(2-(2-(1-hydroxycyclobutyl)ethyl)-8-methoxy-1,2,3,4-tetrahydroisoquinolin-6-yl)-[1,1′-biphenyl]-3-yl)-2-methoxypyridin-3-yl)methyl)amino)methyl)pyrrolidin-2-one], for which 0.3 nM corresponded to half-maximal inhibition (IC50).

As for `COc1cc(-c2cccc(-c3cccc(-c4ccc(CNC[C@@H]5CCC(=O)N5)c(OC)n4)c3Cl)c2Cl)cc2c1CN(CCC(C)(C)O)CC2` [Example 485, (S)-5-((((6-(2,2′-Dichloro-3′-(2-(3-hydroxy-3-methylbutyl)-8-methoxy-1,2,3,4-tetrahydroisoquinolin-6-yl)-[1,1′-biphenyl]-3-yl)-2-methoxypyridin-3-yl)methyl)amino)methyl)pyrrolidin-2-one], the IC50 is 0.1 nM. This IC50 lies about 3-fold lower than the previous one. The result for `COc1nc(-c2cccc(-c3cccc(-c4cc5c(=O)n(C)c(CN[C@H]6CC[C@H](O)CC6)nn5c4)c3Cl)c2Cl)ccc1CNC[C@@H]1CCC(=O)N1` [Example 486, 6-[2-Chloro-3-[2-chloro-3-[6-methoxy-5-[[[(2S)-5-oxopyrrolidin-2-yl]methylamino]methyl]-2-pyridyl]phenyl]phenyl]-2-[[(4-hydroxycyclohexyl)amino]methyl]-3-methyl-pyrrolo[2,1-f][1,2,4]triazin-4-one] reads 0.4 nM. In turn, `COc1nc(-c2cccc(-c3cccc(-c4cc5c(=O)n(C)c(CNCC(=O)O)nn5c4)c3Cl)c2Cl)ccc1CNC[C@@H]1CCC(=O)N1` [Example 487, 2-[[6-[2-Chloro-3-[2-chloro-3-[6-methoxy-5-[[[(2S)-5-oxopyrrolidin-2-yl]methylamino]methyl]-2-pyridyl]phenyl]phenyl]-3-methyl-4-oxo-pyrrolo[2,1-f][1,2,4]triazin-2-yl]methylamino]acetic acid] showed an IC50 of 0.1 nM. Molecule `COc1cc(-c2cccc(-c3cccc(-c4ccc(CNC[C@@H]5CCC(=O)N5)c(OC)n4)c3Cl)c2Cl)cc2c1CN(CC(O)C(C)C)CC2` (stereo partly drawn) [Example 488, (5S)-5-((((6-(2,2′-Dichloro-3′-(2-(2-hydroxy-3-methylbutyl)-8-methoxy-1,2,3,4-tetrahydroisoquinolin-6-yl)-[1,1′-biphenyl]-3-yl)-2-methoxypyridin-3-yl)methyl)amino)methyl)pyrrolidin-2-one] came in with a half-maximal inhibitory concentration (IC50) of 0.2 nM.

In turn, `COC(=O)C[C@H](O)CNCc1nn2cc(-c3cccc(-c4cccc(-c5ccc(CNC[C@@H]6CCC(=O)N6)c(OC)n5)c4Cl)c3Cl)cc2c(=O)n1C` [Example 489, Methyl (3S)-4-[[6-[2-chloro-3-[2-chloro-3-[6-methoxy-5-[[[(2S)-5-oxopyrrolidin-2-yl]methylamino]methyl]-2-pyridyl]phenyl]phenyl]-3-methyl-4-oxo-pyrrolo[2,1-f][1,2,4]triazin-2-yl]methylamino]-3-hydroxy-butanoate] registered a half-maximal inhibitory concentration (IC50) of 1500 nM.

Molecule `COc1nc(-c2cccc(-c3cccc(-c4cc5c(=O)n(C)c(CNCCCF)nn5c4)c3Cl)c2Cl)cc(Cl)c1CNC[C@@H]1CCC(=O)N1` [Example 490, (S)-6-(2,2′-Dichloro-3′-(4-chloro-6-methoxy-5-((((5-oxopyrrolidin-2-yl)methyl)amino)methyl)pyridin-2-yl)-[1,1′-biphenyl]-3-yl)-2-(((3-fluoropropyl)amino)methyl)-3-methylpyrrolo[2,1-f][1,2,4]triazin-4(3H)-one] returned an IC50 of 0.1 nM. In turn, `COc1nc(-c2cccc(-c3cccc(-c4cc5c(=O)n(C)c(CNCCO)nn5c4)c3Cl)c2Cl)cc(Cl)c1CNC[C@@H]1CCC(=O)N1` [Example 491, (S)-6-(2,2′-Dichloro-3′-(4-chloro-6-methoxy-5-((((5-oxopyrrolidin-2-yl)methyl)amino)methyl)pyridin-2-yl)-[1,1′-biphenyl]-3-yl)-2-(((2-hydroxyethyl)amino)methyl)-3-methylpyrrolo[2,1-f][1,2,4]triazin-4(3H)-one] showed a 50% inhibitory concentration (IC50) of 0.7 nM. This IC50 lies about 7-fold higher than the previous one.

On to `COc1nc(-c2cccc(-c3cccc(-c4cc5c(=O)n(C)c(CN6CC(C)(O)C6)nn5c4)c3Cl)c2Cl)cc(Cl)c1CNC[C@@H]1CCC(=O)N1` [Example 492, (S)-6-(2,2′-Dichloro-3′-(4-chloro-6-methoxy-5-((((5-oxopyrrolidin-2-yl)methyl)amino)methyl)pyridin-2-yl)-[1,1′-biphenyl]-3-yl)-2-((3-hydroxy-3-methylazetidin-1-yl)methyl)-3-methylpyrrolo[2,1-f][1,2,4]triazin-4(3H)-one], for which half-maximal inhibition (IC50) required 0.6 nM. As for `COc1nc(-c2cccc(-c3cccc(-c4cc5c(=O)n(C)c(CNC[C@@H](O)CC(=O)O)nn5c4)c3Cl)c2Cl)ccc1CNC[C@@H]1CCC(=O)N1` [Example 493, (3S)-4-[[6-[2-Chloro-3-[2-chloro-3-[6-methoxy-5-[[[(2S)-5-oxopyrrolidin-2-yl]methylamino]methyl]-2-pyridyl]phenyl]phenyl]-3-methyl-4-oxo-pyrrolo[2,1-f][1,2,4]triazin-2-yl]methylamino]-3-hydroxy-butanoic acid], half-maximal inhibition (IC50) required 0.1 nM. In the case of `COc1nc(-c2cccc(-c3cccc(-c4ccc(CN5CCCC[C@H]5C(=O)O)c(OC)n4)c3Cl)c2Cl)ccc1CNC[C@@H]1CCC(=O)N1` [Example 494, (S)-1-((6-(2,2′-Dichloro-3′-(6-methoxy-5-(((((S)-5-oxopyrrolidin-2-yl)methyl)amino)-methyl)pyridin-2-yl)-[1,1′-biphenyl]-3-yl)-2-methoxypyridin-3-yl)methyl)piperidine-2-carboxylic acid], the IC50 turned out to be 0.1 nM.
